{"source": "ChEMBL document CHEMBL6127035", "about": "“Novel pyridazinone derivatives bind to KSRP: Synthesis, anti-tumor biological evaluations and modelling insights” (Eur J Med Chem, 2024)", "key": {"[1]": {"test_system": "Mitochondrial membrane", "experiment": "Induction of mitochondrial membrane potential loss in human MCF7 cells assessed as increase in green fluorescence at 10 uM incubated for 24 hrs by JC-1 staining based automated microscopic immunofluorescence analysis", "format": "cell membranes"}, "[2]": {"test_system": "MCF7", "experiment": "Induction of DNA double-strand breaks in human MCF7 cells assessed as appearance of nuclear fragments at 10 uM incubated for 24 hrs by Hoechst 33342 staining based fluorescence microscopic analysis", "format": "functional, cell-based"}, "[3]": {"experiment": "Cytotoxicity against human L02 cells assessed as reduction in cell viability incubated for 2 days by MTT assay", "format": "toxicity, cell-based"}, "[4]": {"test_system": "MCF7", "experiment": "Induction of apoptosis in human MCF7 cells assessed as late apoptotic cells at 2.5 uM incubated for 48 hrs by Annexin V-FITC/PI staining based flow cytometric analysis (reference value: 4.32 %)", "format": "functional"}, "[5]": {"test_system": "MCF7", "experiment": "Induction of DNA double-strand breaks in human MCF7 cells assessed as enlarged nucleus at 10 uM incubated for 24 hrs by Hoechst 33342 staining based fluorescence microscopic analysis", "format": "functional, cell-based"}, "[6]": {"test_system": "MCF7", "experiment": "Antiproliferation against human MCF7 cells assessed as effect on cell proliferation at 0.625 uM incubated for 2 days by MTT assay", "format": "functional, cell-based", "settings": "time 2.0 day"}, "[7]": {"test_system": "MCF7", "experiment": "Induction of apoptosis in human MCF7 cells assessed as necrotic cells at 0.62 uM incubated for 48 hrs by Annexin V-FITC/PI staining based flow cytometric analysis (reference value: 1.22 %)", "format": "functional"}, "[8]": {"test_system": "4T1", "experiment": "Antiproliferative activity against mouse 4T1 cells assessed as reduction in cell viability incubated for 2 days by MTT assay", "format": "functional, cell-based", "settings": "4T1, 48 h"}, "[9]": {"test_system": "MCF7", "experiment": "Induction of DNA double-strand breaks in human MCF7 cells assessed as increase in gamma-H2AX expression incubated for 24 hrs by Western blotting", "format": "functional, cell-based"}, "[10]": {"experiment": "Acute toxicity in BALB/c nu/nu mouse assessed as mortality rate at 30 mg/kg, ip administered for 7 days relative to control", "format": "organism-based", "settings": "in vivo, time 7 day"}, "[11]": {"test_system": "HCT-116", "experiment": "Antiproliferative activity against human HCT-116 cells assessed as reduction in cell viability incubated for 2 days by MTT assay", "format": "functional, cell-based", "settings": "HCT-116, 48 h"}, "[12]": {"test_system": "A549", "experiment": "Antiproliferative activity against human A549 cells assessed as reduction in cell viability incubated for 2 days by MTT assay", "format": "functional, cell-based", "settings": "A549, 48 h"}, "[13]": {"test_system": "MDA-MB-231", "experiment": "Antiproliferative activity against human MDA-MB-231 cells assessed as reduction in cell viability incubated for 2 days by MTT assay", "format": "functional, cell-based", "settings": "MDA-MB-231, 48 h"}, "[14]": {"test_system": "MDA-MB-231", "experiment": "Inhibition of cell migration in human MDA-MB-231 cells assessed as reduction in wound healing index measured after 72 hrs by scratch assay", "format": "functional, cell-based"}, "[15]": {"test_system": "MCF7", "experiment": "Inhibition of colony formation in human MCF7 cells assessed as reduction in colony count incubated for 2 weeks by crystal violet staining based analysis", "format": "functional, cell-based", "settings": "dose 1.25-2.5 µM"}, "[16]": {"test_system": "MCF7", "experiment": "Induction of apoptosis in human MCF7 cells assessed as late apoptotic cells at 1.25 uM incubated for 48 hrs by Annexin V-FITC/PI staining based flow cytometric analysis (reference value: 4.32 %)", "format": "functional"}, "[17]": {"test_system": "NCI-H460", "experiment": "Antiproliferative activity against human NCI-H460 cells assessed as reduction in cell viability incubated for 2 days by MTT assay", "format": "functional, cell-based", "settings": "NCI-H460, 48 h"}, "[18]": {"test_system": "MCF7", "experiment": "Induction of apoptosis in human MCF7 cells assessed as early apoptotic cells at 0.62 uM incubated for 48 hrs by Annexin V-FITC/PI staining based flow cytometric analysis (reference value: 5.12 %)", "format": "functional"}, "[19]": {"test_system": "KB", "experiment": "Antiproliferative activity against human KB cells assessed as reduction in cell viability incubated for 2 days by MTT assay", "format": "functional, cell-based", "settings": "48 h"}, "[20]": {"test_system": "MCF7", "experiment": "Induction of apoptosis in human MCF7 cells assessed as late apoptotic cells at 0.62 uM incubated for 48 hrs by Annexin V-FITC/PI staining based flow cytometric analysis (reference value: 4.32 %)", "format": "functional"}, "[21]": {"test_system": "MCF7", "experiment": "Inhibition of cell migration in human MCF7 cells assessed as reduction in wound healing index at 0.625 uM measured after 72 hrs by scratch assay", "format": "functional, cell-based"}, "[22]": {"test_system": "MCF7", "experiment": "Induction of apoptosis in human MCF7 cells assessed as necrotic cells at 1.25 uM incubated for 48 hrs by Annexin V-FITC/PI staining based flow cytometric analysis (reference value: 1.22 %)", "format": "functional"}, "[23]": {"test_system": "MCF7", "experiment": "Induction of apoptosis in human MCF7 cells assessed as viable cells at 0.62 uM incubated for 48 hrs by Annexin V-FITC/PI staining based flow cytometric analysis (reference value: 89.3 %)", "format": "functional", "settings": "read-out: Activity"}, "[24]": {"test_system": "MCF7", "experiment": "Induction of apoptosis in human MCF7 cells assessed as viable cells at 2.5 uM incubated for 48 hrs by Annexin V-FITC/PI staining based flow cytometric analysis (reference value: 89.3 %)", "format": "functional", "settings": "read-out: Activity"}, "[25]": {"test_system": "MCF7", "experiment": "Antiproliferative activity against human MCF7 cells assessed as reduction in cell viability incubated for 2 days by MTT assay", "format": "functional, cell-based", "settings": "MCF7, 48 h"}, "[26]": {"test_system": "MCF7", "experiment": "Induction of DNA double-strand breaks in human MCF7 cells assessed as increase in gamma-H2AX foci formation at 10 uM incubated for 24 hrs by […] fluorescence microscopic analysis", "format": "functional, cell-based"}, "[27]": {"test_system": "MCF7", "experiment": "Induction of apoptosis in human MCF7 cells assessed as early apoptotic cells at 2.5 uM incubated for 48 hrs by Annexin V-FITC/PI staining based flow cytometric analysis (reference value: 5.12 %)", "format": "functional"}, "[28]": {"test_system": "U-87 MG", "experiment": "Antiproliferative activity against human U-87 MG cells assessed as reduction in cell viability incubated for 2 days by MTT assay", "format": "functional, cell-based, U-87MG ATCC", "settings": "48 h"}, "[29]": {"test_system": "MIA PaCa-2", "experiment": "Antiproliferative activity against human MIA PaCa-2 cells assessed as reduction in cell viability incubated for 2 days by MTT assay", "format": "functional, cell-based", "settings": "MIA PaCa-2, 48 h"}, "[30]": {"test_system": "MCF7", "experiment": "Induction of apoptosis in human MCF7 cells assessed as early apoptotic cells at 1.25 uM incubated for 48 hrs by Annexin V-FITC/PI staining based flow cytometric analysis (reference value: 5.12 %)", "format": "functional"}, "[31]": {"test_system": "MCF7", "experiment": "Induction of morphological changes in human MCF7 cells assessed as cell membrane blebbing at 10 uM measured after 6 hrs by bright field microscopic", "format": "functional, cell-based"}, "[32]": {"test_system": "MDA-MB-231", "experiment": "Inhibition of colony formation in human MDA-MB-231 cells assessed as reduction in colony count incubated for 2 weeks by crystal violet staining based analysis", "format": "functional, cell-based"}, "[33]": {"test_system": "MCF7", "experiment": "Induction of apoptosis in human MCF7 cells assessed as viable cells at 1.25 uM incubated for 48 hrs by Annexin V-FITC/PI staining based flow cytometric analysis (reference value: 89.3 %)", "format": "functional", "settings": "read-out: Activity"}, "[34]": {"test_system": "MCF7", "experiment": "Induction of ROS accumulation in human MCF7 cells assessed as increase in green fluorescence at 5 uM incubated for 24 hrs by DCFH-DA staining based automated microscopic immunofluorescence analysis", "format": "functional, cell-based"}, "[35]": {"test_system": "MCF7", "experiment": "Induction of apoptosis in human MCF7 cells assessed as necrotic cells at 2.5 uM incubated for 48 hrs by Annexin V-FITC/PI staining based flow cytometric analysis (reference value: 1.22 %)", "format": "functional"}}, "note": "Active and inactive are the calls of the source. The rule behind the calls is not given here.", "data": [{"molecule": "CN(C)CCN(C)S(=O)(=O)c1ccc(-n2ncc(Cl)c(Cl)c2=O)cc1", "values": [{"measurement": "Activity", "setting": "[1]", "result": "Active"}, {"measurement": "Activity", "setting": "[2]", "result": "Active"}, {"measurement": "IC50 at 2 days", "setting": "[3]", "result": 4970, "unit": "nM"}, {"measurement": "Activity", "setting": "[4]", "result": 6.94, "unit": "%"}, {"measurement": "Activity", "setting": "[5]", "result": "Active"}, {"measurement": "Activity", "setting": "[6]", "result": "inactive"}, {"measurement": "Activity", "setting": "[7]", "result": 1.3, "unit": "%"}, {"measurement": "IC50", "setting": "[8]", "result": 1150, "unit": "nM"}, {"measurement": "Activity", "setting": "[9]", "result": "Dose-Dependent Effect"}, {"measurement": "mortality at 168 h", "setting": "[10]", "result": 100, "unit": "%"}, {"measurement": "IC50", "setting": "[11]", "result": 670, "unit": "nM"}, {"measurement": "IC50", "setting": "[12]", "result": 1000, "unit": "nM"}, {"measurement": "IC50", "setting": "[13]", "result": 9160, "unit": "nM"}, {"measurement": "inhibition", "setting": "[14]", "result": "Active"}, {"measurement": "inhibition", "setting": "[15]", "result": "Dose-Dependent Effect"}, {"measurement": "Activity", "setting": "[16]", "result": 5.47, "unit": "%"}, {"measurement": "IC50", "setting": "[17]", "result": 530, "unit": "nM"}, {"measurement": "Activity", "setting": "[18]", "result": 8.46, "unit": "%"}, {"measurement": "IC50", "setting": "[19]", "result": 220, "unit": "nM"}, {"measurement": "Activity", "setting": "[20]", "result": 4.7, "unit": "%"}, {"measurement": "inhibition", "setting": "[21]", "result": "Active"}, {"measurement": "Activity", "setting": "[22]", "result": 1.48, "unit": "%"}, {"measurement": "viability at 0.62 µM", "setting": "[23]", "result": 85.5, "unit": "%"}, {"measurement": "viability at 2.5 µM", "setting": "[24]", "result": 75.3, "unit": "%"}, {"measurement": "IC50", "setting": "[25]", "result": 3790, "unit": "nM"}, {"measurement": "Activity", "setting": "[26]", "result": "Active"}, {"measurement": "Activity", "setting": "[27]", "result": 17, "unit": "%"}, {"measurement": "IC50", "setting": "[28]", "result": 360, "unit": "nM"}, {"measurement": "IC50", "setting": "[29]", "result": 390, "unit": "nM"}, {"measurement": "Activity", "setting": "[30]", "result": 9.53, "unit": "%"}, {"measurement": "Activity", "setting": "[31]", "result": "Active"}, {"measurement": "inhibition", "setting": "[32]", "result": "Active"}, {"measurement": "viability at 1.25 µM", "setting": "[33]", "result": 83.5, "unit": "%"}, {"measurement": "Activity", "setting": "[34]", "result": "Active"}, {"measurement": "Activity", "setting": "[35]", "result": 0.71, "unit": "%"}]}]}
